In series [1] the test system is Streptozotocin-injected (STZ) diabetic rats. The series is described as follows: Fasting blood glucose level of STZ diabetic rats. Conditions: for reduction in blood glucose level compared to control diabetic groups: 6 and 8 hours after treatment, n=6. The class given is in vivo, rat. An excerpt: These symptoms indicate the development of diabetes characterized by chronic and persistently elevated plasma glucose level. STZ induces diabetes by selectively destroying the insulin producing pancreatic endocrine cells. Decreased body weight in STZ-induced diabetic rats is believed to be caused by dehydration, and by breakdown and catabolism of fats and proteins. Increased catabolic reactions upon administering STZ result in muscle wasting, and subsequently, body weight loss.
Compounds 81c, 81f, 82c, and 82d, synthesized as described in Examples 1, 2, 5, and 6 were orally administrated to the treated groups of diabetic rats at a dose of 1.0 μM/kg. Fasting glucose levels in treated and control rat blood were followed over 8.0 hours. […] Compounds 82c and 82d were also tested in vivo (FIGS. 1C, 1D). […] In FIGS. 1A-1D the results are means±SEM, where n=6 rats; *P<0.05, **P<0.01, and ***P<0.001 vs. the STZ diabetic control group.

Series [2] has as its system βTC6 cells. The series is described as follows: Insulin secretion from βTC6 cell line (insulin Sandwich ELISA). As to conditions: for insulin secretion compared to the basal control: absence of glucose; for insulin secretion compared to the basal control / insulin secretion compared to basal insulin secretion and to insulin secretion in the presence of glucose: 10^−15 M, 10^−12 M and 10^−9 M; for insulin secretion compared to the basal control / insulin secretion compared to basal insulin secretion and to insulin secretion in the presence of glucose / glucose-stimulated insulin release compared to basal controls (summary statement): βTC6 cells; for insulin secretion compared to basal insulin secretion and to insulin secretion in the presence of glucose: presence of 2.8 mM glucose. The class given is cell-based, murine. The protocol:
Secretion of insulin by βTC6 cells was measured using the high range insulin Sandwich ELISA kit.
On the technique in general: An ELISA detects its analyte on a solid surface through an enzyme-linked reagent.

Series [3] concerns βTC6 cells. The series is described as follows: Glucose uptake assay (2-NBDG) in βTC6 cells. Type of series: cell-based, murine. As to conditions: 10 μM sample, 450 μM 2-NBDG, ten minutes. The protocol:
The glucose uptake assay was performed with a cell-based assay kit by incubating 450 μM 2-[N-(7-nitrobenz-2-oxa-1,3-diaxol-4-yl)amino]-2-deoxyglucose (2-NBDG, a fluorescently labelled deoxyglucose analog) and a 10 μM sample of the reference drug or the test compound with βTC6 cells for ten minutes and subsequently measuring the fluorescence at excitation and emission wavelengths of 485 nm and 535 nm, respectively, with a TECAN infinite M200 micro plate reader.

Setting [4] is: oral, 1.0 μM/kg, STZ diabetic rats.

Structures are written as SMILES.

As a reminder, the melting point is the temperature of the solid-liquid transition. In turn, `CN(CCO)c1ccnc(Cl)n1` [Compound 81c, 2-[(2′-Chloropyrimidin-4′-yl)-methylamino]ethanol] yielded a melting point of 136 °C. Besides, the “fasting blood glucose levels in diabetic rat models (summary statement)” value (shortened to “fasting blood glucose levels”) in series [1] is given as “decrease fasting blood glucose levels”. In addition, the anti-diabetic potency ranking entry in series [1] (in vivo and in vitro results taken together) is reported as “most potent anti-diabetic compound”. The “reduction in blood glucose level compared to control diabetic groups” value (“reduction in blood glucose level” below) in series [1] (setting [4]) is listed as “significant reduction in blood glucose level”. Also, in series [1] (oral, 1.0 μM/kg, at 8 hours, STZ diabetic rats), the “potency in reducing the blood glucose level” value is given as “high potency in reducing the blood glucose level”. For the same compound, in series [2], the “insulin secretion compared to the basal control” value is listed as “significantly stimulated insulin secretions”; the “insulin secretion compared to basal insulin secretion and to insulin secretion in the presence of glucose” value was “stimulated insulin secretion significantly”; the “glucose-stimulated insulin release compared to basal controls (summary statement)” value is given as “increase glucose-stimulated insulin release”. In addition, the “insulin secretion effect relative to exenatide” value in series [2] (βTC6 cell line) is listed as “comparable effects to exenatide”. The “glucose uptake compared to the standard reference exenatide” value in series [3] is on record as “remarkable potential to flush glucose into the βTC6 cells”.
`OCCNc1ccnc(Cl)n1` [Compound 81f, 2-[(2′-Chloropyrimidin-4′-yl)amino]ethanol] displayed a melting point of 116 to 117 °C. In addition, the “fasting blood glucose levels” value in series [1] is “decrease fasting blood glucose levels”. The “reduction in blood glucose level” value in series [1] (setting [4]) was “significant reduction in blood glucose level”. Also, in series [2], the “insulin secretion compared to the basal control” value is reported as “significantly stimulated insulin secretions”; the “insulin secretion compared to basal insulin secretion and to insulin secretion in the presence of glucose” value is listed as “stimulated insulin secretion significantly”; the “glucose-stimulated insulin release compared to basal controls (summary statement)” value is “increase glucose-stimulated insulin release”. For the same compound, the “glucose uptake compared to the standard reference exenatide” value in series [3] was “remarkable potential to flush glucose into the βTC6 cells”.
`CN(CCO)c1cc(Cl)ncn1` [Compound 82c, 2-[(6′-Chloropyrimidin-4′-yl)(methylamino)]ethanol]: the “fasting blood glucose levels” value in series [1] was “decrease fasting blood glucose levels”. Further, the “reduction in blood glucose level” value in series [1] (setting [4]) is given as “statistically significant reduction in blood glucose level”. Also, in series [2], the “insulin secretion compared to the basal control” value was “significantly stimulated insulin secretions”; the “insulin secretion compared to basal insulin secretion and to insulin secretion in the presence of glucose” value is on record as “stimulated insulin secretion significantly”; the “glucose-stimulated insulin release compared to basal controls (summary statement)” value is reported as “increase glucose-stimulated insulin release”. The “glucose uptake compared to the standard reference exenatide” value in series [3] is listed as “remarkable potential to flush glucose into the βTC6 cells”.
Turning to `Clc1cc(N2CCOCC2)ncn1` [Compound 82d, 4-(6′-Chloropyrimidin-4′-yl)morpholine], in series [1], the “fasting blood glucose levels” value was “decrease fasting blood glucose levels”. Further, the “effect on blood glucose levels (not statistically significant)” value in series [1] (oral, 1.0 μM/kg, followed over 8.0 hours, STZ diabetic rats) is given as “reduced blood glucose levels”. The “glucose-stimulated insulin release compared to basal controls (summary statement)” value in series [2] is on record as “increase glucose-stimulated insulin release”.

The record behind these values is US10702525B1, “Pyrimidine derivatives as anti-diabetic agents” (UNITED ARAB EMIRATES UNIVERSITY, priority 2019, dated 2020).
